Reference: patent US12122761B2, “2-azaspiro[3.4]octane derivatives as M4 agonists” (NOVARTIS AG, priority 2019, dated 2024)

How the values were obtained:
[1] = biological target: T1, human cloned CHRM5 receptor (M5_CHO) (Homo sapiens, UniProt P08912); assay: CHRM5 Ca++ Flux Assay (agonist mode, FDSS 7000EX); format: cell-based; conditions: for Emax: Percent Activity measured to EC100 of Carbachol, read-out: M5 FDSS PA; for EC50: agonist mode, geometric mean if tested more than once, read-out: M5 FDSS EC50
T1 construct: expressed in transfected cells; host or cells: CHO (M5_CHO)
T1 sequence (P08912 1-532): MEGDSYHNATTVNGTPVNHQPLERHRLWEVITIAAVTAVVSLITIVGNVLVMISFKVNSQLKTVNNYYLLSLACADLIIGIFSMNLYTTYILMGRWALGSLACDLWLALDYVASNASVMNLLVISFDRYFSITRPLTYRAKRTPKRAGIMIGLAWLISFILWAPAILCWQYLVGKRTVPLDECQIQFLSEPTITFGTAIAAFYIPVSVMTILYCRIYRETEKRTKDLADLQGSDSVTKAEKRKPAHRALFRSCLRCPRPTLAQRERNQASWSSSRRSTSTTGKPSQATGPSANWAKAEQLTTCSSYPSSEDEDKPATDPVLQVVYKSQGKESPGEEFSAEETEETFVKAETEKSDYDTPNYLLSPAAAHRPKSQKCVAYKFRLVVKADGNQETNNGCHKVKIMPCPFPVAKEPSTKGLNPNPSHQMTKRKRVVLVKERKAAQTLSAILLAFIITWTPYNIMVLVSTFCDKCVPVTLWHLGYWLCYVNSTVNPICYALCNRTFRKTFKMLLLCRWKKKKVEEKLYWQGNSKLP
Summary of the method: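 Stable CHO-K1 lines (human M3 or M5), calcium-dye loaded ≥1 h, assayed in Ca/Mg-free HBSS + 20 mM HEPES + 2.5 mM probenecid. 11-pt dose response, triplicate, 3 min fluorescence read. 4-parameter regression; % activity vs carbachol EC100.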

[2] = biological target: T2, human cloned CHRM4 receptor (M4_CHO cells) (Homo sapiens, UniProt P08173); assay: CHRM4 Ca++ Flux Assay (agonist mode, FDSS 7000EX); format: cell-based; conditions: for Emax: Percent Activity, read-out: M4 FDSS PA; for EC50: geometric mean if tested more than once, read-out: M4 FDSS EC50
T2 construct: expressed in transfected cells; host or cells: CHO-K1
T2 sequence (P08173 1-479): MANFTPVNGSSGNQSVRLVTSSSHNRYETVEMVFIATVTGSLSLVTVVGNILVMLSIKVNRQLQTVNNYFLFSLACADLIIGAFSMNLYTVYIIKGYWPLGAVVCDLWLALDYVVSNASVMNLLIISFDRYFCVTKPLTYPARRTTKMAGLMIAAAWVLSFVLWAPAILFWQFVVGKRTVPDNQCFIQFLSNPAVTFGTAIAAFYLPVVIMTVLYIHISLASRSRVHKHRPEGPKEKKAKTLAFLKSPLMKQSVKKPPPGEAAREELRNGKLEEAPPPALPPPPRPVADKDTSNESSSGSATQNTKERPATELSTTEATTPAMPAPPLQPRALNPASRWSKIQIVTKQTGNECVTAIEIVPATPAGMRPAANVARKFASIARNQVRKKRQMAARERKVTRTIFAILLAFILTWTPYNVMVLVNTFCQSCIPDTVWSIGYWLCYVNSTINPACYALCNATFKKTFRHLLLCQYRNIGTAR
Summary of the method: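 Agonist-mode response was expressed as percent of the Carbachol EC100 and fitted with four-parameter nonlinear regression over an 11-point triplicate dose series. Intracellular Ca++ was tracked for 3 min by fluorescent dye in CHO-K1 cells stably expressing human CHRM4. Cells were preincubated 60 min with 20 μM ATP in buffer containing 2.5 mM probenecid.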

Compound | Emax [1] | EC50 [1] | Emax [2] | EC50 [2]
Fc1ccc(C2CCOC2)c(C2CCN([C@@H]3CCC4(C3)CN(c3nnco3)C4)CC2)c1 (mixture of isomers) [Example 2J, 2-((6R)-6-(4-(5-fluoro-2-(tetrahydrofuran-3-yl)phenyl)piperidin-1-yl)-2-azaspiro[3.4]octan-2-yl)-1,3,4-oxadiazole] | 0% | > 25000 nM | 92% | 2 nM
O=C(C1COC1)N1CC2(CC[C@H](N3CCC(c4ccccc4OC(F)(F)F)CC3)C2)C1 (single isomer, unassigned) [Example 8G] | 0% | > 25000 nM | 24% | 274 nM
O=C(N1CC2(CC[C@H](N3CCC(c4ccccc4C4CCOCC4)CC3)C2)C1)C1(F)CC1 (single isomer, unassigned) [Example 9M] | 0% | > 25000 nM | 35% | 100 nM
c1ccc(C2CCN([C@H]3CCC4(C3)CN(c3nnco3)C4)CC2)c(C2CCOCC2)c1 (single isomer, unassigned) [Example 10T] | 0% | > 25000 nM | 67% | 170 nM
c1ccc(C2CCN([C@@H]3CCC4(C3)CN(c3nnco3)C4)CC2)c(OC2CC3(COC3)C2)c1 [Example 1A, (R)-2-(6-(4-(2-((2-oxaspiro[3.3]heptan-6-yl)oxy)phenyl)piperidin-1-yl)-2-azaspiro[3.4]octan-2-yl)-1,3,4-oxadiazole] | 0% | > 25000 nM | 81% | 1 nM
c1ccc(C2CCN([C@@H]3CCC4(C3)CN(c3nnco3)C4)CC2)c(OC2COC2)c1 [Example 1D, (R)-2-(6-(4-(2-(oxetan-3-yloxy)phenyl)piperidin-1-yl)-2-azaspiro[3.4]octan-2-yl)-1,3,4-oxadiazole] | 0% | 4390 nM | 79% | 1 nM
c1ccc(C2CCN([C@@H]3CCC4(C3)CN(c3nnco3)C4)CC2)c(OC[C@@H]2COCCO2)c1 [Example 1E, 2-((R)-6-(4-(2-(((S)-1,4-dioxan-2-yl)methoxy)phenyl)piperidin-1-yl)-2-azaspiro[3.4]octan-2-yl)-1,3,4-oxadiazole] | 0% | > 25000 nM | 72% | 1 nM
CC(C)(O)CCOc1ccccc1C1CCN([C@@H]2CCC3(C2)CN(c2nnco2)C3)CC1 [Example 1F] | 0% | > 25000 nM | 48% | 4 nM
c1ccc(C2CCN([C@@H]3CCC4(C3)CN(c3nncs3)C4)CC2)c(OCC2COC2)c1 [Example 1G, (R)-2-(6-(4-(2-(oxetan-3-ylmethoxy)phenyl)piperidin-1-yl)-2-azaspiro[3.4]octan-2-yl)-1,3,4-thiadiazole] | 0% | > 25000 nM | 82% | 1 nM
FC1(COc2ccccc2C2CCN([C@@H]3CCC4(C3)CN(c3nncs3)C4)CC2)COC1 [Example 1H, (R)-2-(6-(4-(2-((3-fluorooxetan-3-yl)methoxy)phenyl)piperidin-1-yl)-2-azaspiro[3.4]octan-2-yl)-1,3,4-thiadiazole] | 10% | 2020 nM | 71% | 1 nM
c1ccc(C2CCN([C@@H]3CCC4(C3)CN(c3nncs3)C4)CC2)c(OCC2CCOCC2)c1 [Example 1I, (R)-2-(6-(4-(2-((tetrahydro-2H-pyran-4-yl)methoxy)phenyl)piperidin-1-yl)-2-azaspiro[3.4]octan-2-yl)-1,3,4-thiadiazole] | 0% | > 25000 nM | 61% | 4 nM
FC1(COc2ccccc2C2CCN([C@@H]3CCC4(C3)CN(c3nncs3)C4)CC2)CCOCC1 [Example 1J, (R)-2-(6-(4-(2-((4-fluorotetrahydro-2H-pyran-4-yl)methoxy)phenyl)piperidin-1-yl)-2-azaspiro[3.4]octan-2-yl)-1,3,4-thiadiazole] | 0% | > 25000 nM | 50% | 6 nM
c1ccc(C2CCN([C@@H]3CCC4(C3)CN(c3cncnc3)C4)CC2)c(OC2COC2)c1 [Example 1K, (R)-6-(4-(2-(oxetan-3-yloxy)phenyl)piperidin-1-yl)-2-(pyrimidin-5-yl)-2-azaspiro[3.4]octane] | 0% | > 25000 nM | 74% | 1 nM
c1ccc(C2CCN([C@@H]3CCC4(C3)CN(c3cncnc3)C4)CC2)c(OC2CCOCC2)c1 [Example 1L, (R)-2-(pyrimidin-5-yl)-6-(4-(2-((tetrahydro-2H-pyran-4-yl)oxy)phenyl)piperidin-1-yl)-2-azaspiro[3.4]octane] | 0% | > 25000 nM | 67% | 2 nM
c1ccc(C2CCN([C@@H]3CCC4(C3)CN(c3cncnc3)C4)CC2)c(OCC2CCOCC2)c1 [Example 1M, (R)-2-(pyrimidin-5-yl)-6-(4-(2-((tetrahydro-2H-pyran-4-yl)methoxy)phenyl)piperidin-1-yl)-2-azaspiro[3.4]octane] | 0% | > 25000 nM | 53% | 3 nM
c1ccc(C2CCN([C@@H]3CCC4(C3)CN(c3cncnc3)C4)CC2)c(OCC2COC2)c1 [Example 1N, (R)-6-(4-(2-(oxetan-3-ylmethoxy)phenyl)piperidin-1-yl)-2-(pyrimidin-5-yl)-2-azaspiro[3.4]octane] | 0% | > 25000 nM | 62% | < 0.4 nM
c1ccc(C2CCN([C@@H]3CCC4(C3)CN(c3cncnc3)C4)CC2)c(OC2CC3(COC3)C2)c1 [Example 1O, (R)-6-(4-(2-((2-oxaspiro[3.3]heptan-6-yl)oxy)phenyl)piperidin-1-yl)-2-(pyrimidin-5-yl)-2-azaspiro[3.4]octane] | 0% | > 25000 nM | 59% | 3 nM
c1ccc(C2CCN([C@@H]3CCC4(C3)CN(c3cncnc3)C4)CC2)c(O[C@@H]2CCOC2)c1 [Example 1P, (R)-2-(pyrimidin-5-yl)-6-(4-(2-(((R)-tetrahydrofuran-3-yl)oxy)phenyl)piperidin-1-yl)-2-azaspiro[3.4]octane] | 0% | > 25000 nM | 61% | 1 nM
CC(C)(O)COc1ccccc1C1CCN([C@@H]2CCC3(C2)CN(c2nnco2)C3)CC1 [Example 2A, (R)-1-(2-(1-(2-(1,3,4-oxadiazol-2-yl)-2-azaspiro[3.4]octan-6-yl)piperidin-4-yl)phenoxy)-2-methylpropan-2-ol] | 0% | > 25000 nM | 69% | 10 nM
c1ccc(C2CCN([C@@H]3CCC4(C3)CN(c3nnco3)C4)CC2)c(O[C@@H]2CCOC2)c1 [Example 2B, 2-((R)-6-(4-(2-(((R)-tetrahydrofuran-3-yl)oxy)phenyl)piperidin-1-yl)-2-azaspiro[3.4]octan-2-yl)-1,3,4-oxadiazole] | 0% | > 25000 nM | 95% | < 0.4 nM
COCCOc1ccccc1C1CCN([C@@H]2CCC3(C2)CN(c2nnco2)C3)CC1 [Example 2C] | 0% | > 25000 nM | 72% | 1 nM
FC1(COc2ccccc2C2CCN([C@@H]3CCC4(C3)CN(c3nnco3)C4)CC2)CCOCC1 [Example 2D, (R)-2-(6-(4-(2-((4-fluorotetrahydro-2H-pyran-4-yl)methoxy)phenyl)piperidin-1-yl)-2-azaspiro[3.4]octan-2-yl)-1,3,4-oxadiazole] | 0% | > 25000 nM | 72% | 1 nM
CC1(COc2ccccc2C2CCN([C@@H]3CCC4(C3)CN(c3nnco3)C4)CC2)CCOCC1 [Example 2E, (R)-2-(6-(4-(2-((4-methyltetrahydro-2H-pyran-4-yl)methoxy)phenyl)piperidin-1-yl)-2-azaspiro[3.4]octan-2-yl)-1,3,4-oxadiazole] | 0% | > 25000 nM | 86% | 2 nM
